Assays:
Histamine H1 receptor [1] = molecular target: T1, Histamine H1 receptor (Homo sapiens, UniProt P35367); assay: Displacement of [3H]mepyramine from human histamine H1 receptor expressed in sf9 cell membrane co-expressing RGS4 incubated for 60 mins by liquid scintillation counting method
Histamine H2 receptor [2] = molecular target: T2, Histamine H2 receptor (Homo sapiens, UniProt P25021); assay: Antagonist activity at human histamine H2 receptor expressed in sf9 cell membrane co-expressing Gsalphas assessed as inhibition of histamine-induced [35S]GTPgammaS binding incubated for 90 mins; format: functional
T2 sequence (P25021 whole entry): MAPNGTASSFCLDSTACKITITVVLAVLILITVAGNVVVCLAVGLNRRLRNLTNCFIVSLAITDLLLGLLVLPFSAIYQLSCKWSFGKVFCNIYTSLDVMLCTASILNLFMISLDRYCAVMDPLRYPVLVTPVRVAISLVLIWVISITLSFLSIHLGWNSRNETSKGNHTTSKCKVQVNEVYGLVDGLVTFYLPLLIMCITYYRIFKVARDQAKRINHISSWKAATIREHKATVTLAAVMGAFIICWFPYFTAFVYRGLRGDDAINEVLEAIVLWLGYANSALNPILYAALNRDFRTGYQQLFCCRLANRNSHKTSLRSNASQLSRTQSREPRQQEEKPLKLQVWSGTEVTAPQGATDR

Histamine H2 receptor [3] = molecular target: T2, Histamine H2 receptor; assay: Intrinsic activity at human histamine H2 receptor expressed in sf9 cell membrane co-expressing Gsalphas at 10 uM incubated for 90 mins by [35S]GTPgammaS binding assay relative to histamine; format: functional
Histamine H3 receptor [4] = molecular target: T3, Histamine H3 receptor (Homo sapiens, UniProt Q9Y5N1); assay: Agonist activity at human histamine H3 receptor expressed in sf9 cell membrane co-expressing mammalian Galphai2 and Gbeta1gamma2 incubated for 90 mins by [35S]GTPgammaS binding assay; format: functional
T3 sequence (Q9Y5N1 whole entry): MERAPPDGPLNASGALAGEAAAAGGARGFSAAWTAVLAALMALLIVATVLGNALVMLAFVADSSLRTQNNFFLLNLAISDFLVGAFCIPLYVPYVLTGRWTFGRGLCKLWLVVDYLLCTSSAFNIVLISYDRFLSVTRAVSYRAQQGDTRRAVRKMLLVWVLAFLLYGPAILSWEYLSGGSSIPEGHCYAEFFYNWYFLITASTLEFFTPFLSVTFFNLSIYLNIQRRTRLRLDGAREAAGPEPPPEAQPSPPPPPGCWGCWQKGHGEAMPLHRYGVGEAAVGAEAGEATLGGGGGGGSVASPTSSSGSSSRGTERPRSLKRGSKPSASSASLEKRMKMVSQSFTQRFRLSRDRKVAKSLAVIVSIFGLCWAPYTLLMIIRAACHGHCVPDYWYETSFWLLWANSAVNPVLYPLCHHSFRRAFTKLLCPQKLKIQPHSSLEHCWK

Histamine H3 receptor [5] = molecular target: T3, Histamine H3 receptor; assay: Intrinsic activity at human histamine H3 receptor expressed in sf9 cell membrane co-expressing mammalian Galphai2 and Gbeta1gamma2 at 10 uM incubated for 90 mins by [35S]GTPgammaS binding assay relative to histamine; format: functional
Histamine H4 receptor [6] = molecular target: T4, Histamine H4 receptor (Homo sapiens, UniProt Q9H3N8); assay: Agonist activity at human histamine H4 receptor expressed in sf9 cell membrane co-expressing mammalian Galphai2 and Gbeta1gamma2 incubated for 90 mins by [35S]GTPgammaS binding assay; format: functional
T4 sequence (Q9H3N8 whole entry): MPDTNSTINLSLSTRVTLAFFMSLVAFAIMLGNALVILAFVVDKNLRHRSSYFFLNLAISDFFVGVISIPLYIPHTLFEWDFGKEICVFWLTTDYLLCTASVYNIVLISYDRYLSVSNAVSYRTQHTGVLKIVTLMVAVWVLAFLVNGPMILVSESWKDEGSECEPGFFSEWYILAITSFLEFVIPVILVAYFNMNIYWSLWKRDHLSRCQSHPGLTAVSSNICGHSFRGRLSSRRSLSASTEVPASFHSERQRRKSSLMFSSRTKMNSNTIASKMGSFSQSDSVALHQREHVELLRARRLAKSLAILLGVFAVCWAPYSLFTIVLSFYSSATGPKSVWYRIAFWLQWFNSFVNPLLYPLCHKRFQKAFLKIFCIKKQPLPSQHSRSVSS

Histamine H3 receptor [7] = molecular target: T3, Histamine H3 receptor; assay: Antagonist activity at human histamine H3 receptor expressed in sf9 cell membrane co-expressing mammalian Galphai2 and Gbeta1gamma2 assessed as inhibition of histamine-induced [35S]GTPgammaS binding incubated for 90 mins; format: functional
Histamine H3 receptor [8] = molecular target: T3, Histamine H3 receptor; assay: Displacement of [3H]N-alpha-methylhistamine from human histamine H3 receptor expressed in sf9 cell membrane co-expressing mammalian Galphai2 and Gbeta1gamma2 incubated for 60 mins by liquid scintillation counting method
Histamine H4 receptor [9] = molecular target: T4, Histamine H4 receptor; assay: Displacement of [3H]UR-PI294 from human histamine H4 receptor expressed in sf9 cell membrane co-expressing mammalian Galphai2 and Gbeta1gamma2 incubated for 60 mins by liquid scintillation counting method
Histamine H1 receptor [10] = molecular target: T1, Histamine H1 receptor; assay: Antagonist activity at human histamine H1 receptor expressed in sf9 cell membrane co-expressing RGS4 assessed as inhibition of histamine-induced increase in 32Pi level preincubated for 2 mins followed by [gamma-32P]GTP addition measured after 20 mins by liquid scintillation counting method

T1 sequence (P35367 whole entry): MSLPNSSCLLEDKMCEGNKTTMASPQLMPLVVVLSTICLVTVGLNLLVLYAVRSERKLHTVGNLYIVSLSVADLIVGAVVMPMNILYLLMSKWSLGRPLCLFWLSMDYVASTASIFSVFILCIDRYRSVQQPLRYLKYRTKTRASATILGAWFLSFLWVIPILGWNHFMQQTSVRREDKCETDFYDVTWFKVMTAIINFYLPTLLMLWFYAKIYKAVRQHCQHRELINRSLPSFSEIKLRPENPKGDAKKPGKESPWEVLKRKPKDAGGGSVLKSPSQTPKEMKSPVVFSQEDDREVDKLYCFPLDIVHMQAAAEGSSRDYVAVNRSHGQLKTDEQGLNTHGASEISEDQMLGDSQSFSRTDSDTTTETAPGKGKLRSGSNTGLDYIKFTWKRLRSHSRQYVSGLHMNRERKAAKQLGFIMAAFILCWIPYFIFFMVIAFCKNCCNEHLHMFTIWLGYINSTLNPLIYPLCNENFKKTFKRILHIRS

Structure (SMILES): N#C/N=C(\NC[C@H]1CC[C@H](c2c[nH]cn2)C1)NC1CC1 (racemic)
- Ki (Histamine H1 receptor [1]): > 10000 nM
- Kb (Histamine H2 receptor [2]): > 10000 nM
- Intrinsic activity (Histamine H2 receptor [3]): 0
- EC50 (Histamine H3 receptor [4]): > 10000 nM
- Intrinsic activity (Histamine H3 receptor [5]): 0.36
- EC50 (Histamine H4 receptor [6]): 230 nM

Structure (SMILES): N#C/N=C(/NCCOc1ccccc1)NC[C@H]1CC[C@H](c2c[nH]cn2)C1 (racemic)
- Ki (Histamine H1 receptor [1]): > 10000 nM
- Kb (Histamine H2 receptor [2]): > 10000 nM
- Intrinsic activity (Histamine H2 receptor [3]): 0
- Kb (Histamine H3 receptor [7]): 540 nM
- Intrinsic activity (Histamine H3 receptor [5]): 0
- EC50 (Histamine H4 receptor [6]): 524 nM

Structure (SMILES): CN/C(=N\C#N)NC[C@H]1CC[C@H](c2c[nH]cn2)C1 (racemic) [listing 1 of 2 here]
- Ki (Histamine H1 receptor [1]): > 10000 nM
- EC50 (Histamine H3 receptor [4]): 370 nM
- Ki (Histamine H3 receptor [8]): 830 nM
- EC50 (Histamine H4 receptor [6]): 206 nM
- Ki (Histamine H4 receptor [9]): 240 nM

Structure (SMILES): CC(C)CN/C(=N/C#N)NC[C@@H]1CC[C@H](c2c[nH]cn2)C1 (racemic)
- Ki (Histamine H1 receptor [1]): 8350 nM
- Kb (Histamine H2 receptor [2]): > 10000 nM
- Intrinsic activity (Histamine H2 receptor [3]): 0
- EC50 (Histamine H3 receptor [4]): 858 nM
- Intrinsic activity (Histamine H3 receptor [5]): 0.5
- EC50 (Histamine H4 receptor [6]): 202 nM

Structure (SMILES): N#C/N=C(/NCCNc1ccccc1)NC[C@@H]1CC[C@H](c2c[nH]cn2)C1 (racemic)
- Ki (Histamine H1 receptor [1]): > 10000 nM
- Kb (Histamine H2 receptor [2]): > 10000 nM
- Intrinsic activity (Histamine H2 receptor [3]): 0
- Kb (Histamine H3 receptor [7]): 402 nM
- Intrinsic activity (Histamine H3 receptor [5]): 0

Structure (SMILES): N#C/N=C(/NCCNc1ccccc1)NC[C@H]1CC[C@H](c2c[nH]cn2)C1 (racemic)
- Ki (Histamine H1 receptor [1]): > 10000 nM
- Kb (Histamine H2 receptor [2]): > 10000 nM
- Intrinsic activity (Histamine H2 receptor [3]): 0
- Kb (Histamine H3 receptor [7]): 408 nM
- Intrinsic activity (Histamine H3 receptor [5]): 0

Structure (SMILES): N#C/N=C(/NCCSc1ccccc1)NC[C@H]1CC[C@H](c2c[nH]cn2)C1 (racemic) [listing 1 of 2 here]
- Ki (Histamine H1 receptor [1]): 6080 nM
- Ki (Histamine H3 receptor [8]): 1230 nM
- EC50 (Histamine H4 receptor [6]): 14 nM
- Ki (Histamine H4 receptor [9]): 99 nM

Structure (SMILES): N#C/N=C(/NCCCc1ccccc1)NC[C@@H]1CC[C@H](c2c[nH]cn2)C1 (racemic)
- Ki (Histamine H1 receptor [1]): 9350 nM
- Kb (Histamine H2 receptor [2]): > 10000 nM
- Intrinsic activity (Histamine H2 receptor [3]): 0
- Kb (Histamine H3 receptor [7]): 70 nM
- Intrinsic activity (Histamine H3 receptor [5]): 0
- EC50 (Histamine H4 receptor [6]): 372 nM

Structure (SMILES): N#C/N=C(/NCCOc1ccccc1)NC[C@@H]1CC[C@H](c2c[nH]cn2)C1 (racemic)
- Ki (Histamine H1 receptor [1]): > 10000 nM
- Kb (Histamine H2 receptor [2]): > 10000 nM
- Intrinsic activity (Histamine H2 receptor [3]): 0
- Kb (Histamine H3 receptor [7]): 328 nM
- Intrinsic activity (Histamine H3 receptor [5]): 0

Structure (SMILES): N#C/N=C(/NCCSc1ccccc1)NC[C@@H]1CC[C@H](c2c[nH]cn2)C1 (racemic) [listing 1 of 2 here]
- Ki (Histamine H1 receptor [1]): 3800 nM
- Ki (Histamine H3 receptor [8]): 1350 nM
- EC50 (Histamine H4 receptor [6]): 129 nM
- Ki (Histamine H4 receptor [9]): 250 nM

Structure (SMILES): N#C/N=C(/NCCCc1ccccc1)NC[C@H]1CC[C@H](c2c[nH]cn2)C1 (racemic)
- Ki (Histamine H1 receptor [1]): > 10000 nM
- Kb (Histamine H2 receptor [2]): > 10000 nM
- Intrinsic activity (Histamine H2 receptor [3]): 0
- Kb (Histamine H3 receptor [7]): 325 nM
- Intrinsic activity (Histamine H3 receptor [5]): -0.19
- EC50 (Histamine H4 receptor [6]): 125 nM

Structure (SMILES): N#C/N=C(\NC[C@@H]1CC[C@H](c2c[nH]cn2)C1)NC1CC1 (racemic)
- Ki (Histamine H1 receptor [1]): > 10000 nM
- Kb (Histamine H2 receptor [2]): > 10000 nM
- Intrinsic activity (Histamine H2 receptor [3]): 0
- EC50 (Histamine H3 receptor [4]): 1530 nM
- Intrinsic activity (Histamine H3 receptor [5]): 0.28
- EC50 (Histamine H4 receptor [6]): 245 nM

Structure (SMILES): CN/C(=N\C#N)NC[C@@H]1CC[C@H](c2c[nH]cn2)C1 (racemic) [listing 1 of 2 here]
- Ki (Histamine H1 receptor [1]): > 10000 nM
- EC50 (Histamine H3 receptor [4]): 547 nM
- Ki (Histamine H3 receptor [8]): 860 nM
- EC50 (Histamine H4 receptor [6]): 111 nM
- Ki (Histamine H4 receptor [9]): 155 nM

Structure (SMILES): CC(C)CN/C(=N/C#N)NC[C@H]1CC[C@H](c2c[nH]cn2)C1 (racemic)
- Ki (Histamine H1 receptor [1]): 8750 nM
- Kb (Histamine H2 receptor [2]): > 10000 nM
- Intrinsic activity (Histamine H2 receptor [3]): 0
- EC50 (Histamine H3 receptor [4]): 578 nM
- Intrinsic activity (Histamine H3 receptor [5]): 0.54
- EC50 (Histamine H4 receptor [6]): 15 nM

Structure (SMILES): CN/C(=N\C#N)NC[C@@H]1CC[C@H](c2c[nH]cn2)C1 (racemic) [listing 2 of 2 here]
- Kb (Histamine H2 receptor [2]): > 10000 nM
- Intrinsic activity (Histamine H2 receptor [3]): 0
- Intrinsic activity (Histamine H3 receptor [5]): 0.51

Structure (SMILES): CN/C(=N\C#N)NC[C@H]1CC[C@H](c2c[nH]cn2)C1 (racemic) [listing 2 of 2 here]
- Kb (Histamine H2 receptor [2]): > 10000 nM
- Intrinsic activity (Histamine H2 receptor [3]): 0
- Intrinsic activity (Histamine H3 receptor [5]): -0.46

Structure (SMILES): N#C/N=C(/NCCSc1ccccc1)NC[C@@H]1CC[C@H](c2c[nH]cn2)C1 (racemic) [listing 2 of 2 here]
- Kb (Histamine H2 receptor [2]): > 10000 nM
- Intrinsic activity (Histamine H2 receptor [3]): 0
- Kb (Histamine H3 receptor [7]): 162 nM
- Intrinsic activity (Histamine H3 receptor [5]): -0.34
- Kb (Histamine H1 receptor [10]): 3800 nM

Structure (SMILES): N#C/N=C(/NCCSc1ccccc1)NC[C@H]1CC[C@H](c2c[nH]cn2)C1 (racemic) [listing 2 of 2 here]
- Kb (Histamine H2 receptor [2]): > 10000 nM
- Intrinsic activity (Histamine H2 receptor [3]): 0
- Kb (Histamine H3 receptor [7]): 246 nM
- Intrinsic activity (Histamine H3 receptor [5]): -0.4
- Kb (Histamine H1 receptor [10]): 6000 nM

Structure (SMILES): Cc1nc[nH]c1CCN [4-METHYLHISTAMINE]
- Intrinsic activity (Histamine H2 receptor [3]): 1
- EC50 (Histamine H3 receptor [4]): 12400 nM
- Intrinsic activity (Histamine H3 receptor [5]): 0.7
